Like-named read-outs stand apart in the source and are kept apart here.
Tests used:
[1] = test system: RAW264.7 cells; details: reported by NICM Health Research Institute; cited from earlier work
[2] = test system: LPS-induced RAW264.7 cells; test: Inhibition of NO release in LPS-induced RAW264.7 cells, with Chou-Talalay synergy analysis (Experimental Example 1); format: cell-based, mouse; details: for NO Production Rate: LPS 50 ng/mL 24 h, LPS without drug = 100%; for IC50: read-out: IC50 (concentration at which NO production is 50%), LPS-induced RAW264.7 cells, NO release
Description: RAW264.7 cells were seeded in a 96-well cell culture plate at 1×10^6/mL and cultured for 24 h. […] The cells were pretreated with the serially diluted drug solutions for 2 h, and then treated with LPS (50 ng/mL) for 24 h. The cell supernatant was aspirated, the NO release level in the supernatant was determined, and the IC50 values of the four groups of drugs inhibiting NO release were calculated. The dose-effect relationships of the three single components and the three-component composition were imported into CalcuSyn software 2.0 (Biosoft, USA), and the inhibition rate-combination index plot (Fa-CI) was generated using the Chou-Talalay mathematical model. The Fa-CI plot can reflect the relationship between the CI value and the effective level of a certain biological index (i.e., the inhibitory effect on NO). The intensity and nature of the interaction between drugs can be quantitatively judged by the value of CI: CI>1 indicates antagonism, CI=1 indicates additive effect, and CI<1 indicates synergism.

[3] = test system: ALI mice induced by LPS; test: Mouse acute lung injury model: BALF inflammatory factors and lung pathology (Experimental Example 6); format: in vivo; details: three-component 398 mg/kg intragastric, dexamethasone 5 mg/kg i.p.
Description: (§1) Establishment of mouse acute lung injury model: Mice were anesthetized with isoflurane, and LPS (1 mg/kg) was instilled into one side of the nasal cavity. After instillation, the mice were stood upright quickly, and returned to the original feeding cage after waking up to complete modeling.
(§2) All drugs were administered 0.5 h after establishing the mouse ALI model with LPS.
The levels of inflammatory factors IL-1B, IL-6 and TNF-α in BALF were determined in strict accordance with the instructions of the inflammatory factor detection kit.
The right upper lobe of the mouse lung was fixed with tissue fixative for 72 hours, and HE-stained sections were prepared by paraffin embedding, sectioning, dehydration and staining. Lung tissue lesions were observed under a microscope.

[4] = test system: ALI mice induced by LPS; test: Mouse acute lung injury model: lung index, W/D, BALF leukocytes and protein (Experimental Example 5); format: in vivo; details: three-component 398 mg/kg intragastric, dexamethasone 5 mg/kg i.p.
Description: as §1, §2
24 h after model establishment, mice were anesthetized with pentobarbital sodium and sacrificed by abdominal aorta bloodletting. Lung tissues were dissected and weighed, and the lung coefficient (lung tissue weight/mouse body weight) was calculated; the right upper lobe of the mouse lung was fixed in formalin, and pathological sections were made and stained with HE to observe pathological changes; the middle and lower lobes of the right lung of the mouse were weighed (wet weight), placed in a 60° C. oven to dry to constant weight, and weighed (dry weight), and the wet-to-dry weight ratio (wet weight/dry weight, W/D) was calculated. The right bronchus of the mouse was ligated, the left lobe of the lung was taken, and bronchoalveolar lavage fluid (BALF) was recovered after lavage with 0.8 mL PBS for three times. The total number of leukocytes and total protein concentration were determined using an automatic cell counter.

Row | Structure (SMILES) | inhibiting LPS-induced NO release from RAW264.7 cells [1] | NO Production Rate ([2]; 0.86 μM) [%] | NO Production Rate ([2]; 1.63 μM) [%] | NO Production Rate ([2]; 3.125 μM) [%] | NO Production Rate ([2]; 6.25 μM) [%] | NO Production Rate ([2]; 12.5 μM) [%] | NO Production Rate ([2]; 25 μM) [%] | NO Production Rate ([2]; 50 μM) [%] | NO Production Rate ([2]; 100 μM) [%] | IC50 ([2]; Mus musculus) [µM] | also measured
1 | CC1(C)[C@@H](O[C@H]2O[C@H](C(=O)O)[C@@H](O)[C@H](O)[C@H]2O[C@@H]2O[C@H](C(=O)O)[C@@H](O)[C@H](O)[C@H]2O)CC[C@]2(C)[C@H]3C(=O)C=C4[C@@H]5C[C@@](C)(C(=O)O)CC[C@]5(C)CC[C@@]4(C)[C@]3(C)CC[C@@H]12 [Glycyrrhizic Acid, glycyrrhizic acid] | a certain effect | 105.02 ± 8.02 | 88.06 ± 5.38 | 86.28 ± 2.29 | 81.79 ± 5.81 | 80.67 ± 4.74 | 71.04 ± 3.50 | 55.35 ± 3.98 | 43.54 ± 6.10 | 78.8 ± 11.9 | 
2 | C[C@@H]1C[C@H]2[C@@H]3CCC4=CC(=O)C=C[C@]4(C)[C@@]3(F)[C@@H](O)C[C@]2(C)[C@@]1(O)C(=O)CO [Dexamethasone, dexamethasone] |  |  |  |  |  |  |  |  |  |  | IL-1β in BALF ([3]; ALI mice, 24 h after LPS): 186.475 ± 76.810 pg/mL; IL-6 in BALF ([3]; ALI mice, 24 h after LPS): 819.19 ± 506.63 pg/mL; TNF-α in BALF ([3]; ALI mice, 24 h after LPS): 345.080 ± 239.594 pg/mL; Pathological Score ([3]; lung tissue, HE staining): 6.70 ± 2.50; BALF Leukocytes ([4]; 24 h after LPS): 18.760 ± 7.468 ×10^5 cells/mL; BALF Protein Concentration ([4]; 24 h after LPS): 0.814 ± 0.183 mg/mL; Lung Index (BW) ([4]; lung tissue weight/body weight, 24 h after LPS 1 mg/kg intranasal, 0.5 h after LPS): 0.816 ± 0.089; Wet-to-Dry Weight Ratio (W/D) ([4]; right lung lobes, 24 h after LPS): 4.701 ± 0.221
3 | O=c1cc(-c2ccccc2)oc2cc(O)c(O)c(O)c12 [Baicalein, baicalein] | a certain effect | 90.14 ± 7.64 |  |  |  | 60.52 ± 5.14 | 40.47 ± 6.87 | 7.77 ± 3.47 | 2.44 ± 2.33 | 11.3 ± 1.32 | 
4 | O=c1cc(-c2ccc(O)c(O)c2)oc2cc(O)cc(O)c12 [luteolin] | a certain effect |  |  |  |  |  |  |  |  |  | 
5 | C=C1CC[C@@H]2[C@](C)(CO)[C@H](O)CC[C@@]2(C)[C@@H]1C/C=C1/C(=O)OC[C@H]1O [andrographolide] | a certain effect |  |  |  |  |  |  |  |  |  | 
6 | CCCCC/C=C/C(=O)CCc1ccc(O)c(OC)c1 [6-Shogaol, 6-shogaol] | a certain effect |  | 60.42 ± 6.14 | 56.75 ± 6.97 | 41.41 ± 2.75 | 11.42 ± 2.69 | 8.67 ± 0.84 | 6.11 ± 2.41 | 5.89 ± 3.38 |  | IC50 [2]: 3.23 ± 0.42 µM
